A short description of data set [1]: Redox potential of cross linking suppressors. Format: physicochemical.
The test system of data set [2] is Collagen IV. Nature of the data set: Suppression of methylglyoxal-induced cross linking of collagen IV, by fluorescent intensity. Format: biochemical.
Data set [3] has as its system AGE formation in peritoneum tissue. The note with it: rat.
[4] abbreviates: Table 3, Control 3 (no suppressor) +282.
Where [5] appears, read: collagen IV + methylglyoxal in phosphate buffer solution, 37° C., 7 days, relative to Control 3 = 100.

Like-named read-outs stand apart in the source and are kept apart here.

For the compound `CNC(=S)NC` [Dimethylthiourea], in data set [1], the “Redox potential (mV)” value was −40 mV. In data set [2], the “Increase in FI %” value is 2%.
As to `O=C(C[n+]1ccsc1)c1ccccc1.[Br-]` [N-Phenacyl thiazolium bromide], in data set [3] (solution (C), methylglyoxal + additive, 5 days), the “AGE formation in peritoneum (in words)” value is “did not form AGE”. In addition, in data set [3] (solution (D), additive alone for second 5 days), the “AGE formed on peritoneum tissue through first 5 days infusion, after second 5 days infusion (in words)” value was “disappeared”.
Consider `O=S([O-])O.[Na+]` [Sodium bisulfite], for which, in data set [1], the “Redox potential (mV)” value was −127 mV. Moreover, the “Increase in FI %” value in data set [2] is 0%.
As for `S` [Sodium hydrosulfide], the “Redox potential (mV)” value in data set [1] was −620 mV. In data set [2], the “Increase in FI %” value was found to be 10%.
Regarding `O=S([O-])S(=O)[O-].[Na+].[Na+]` [Sodium hydrosulfite (Na2S2O4), Sodium hydrosulfite], the “Redox potential (mV)” value in data set [1] (setting [4]) is on record as −360 mV. Moreover, in data set [2] (setting [5]), the “Increase in FI %” value was 0%.
Regarding `O=S([O-])S(=O)(=O)[O-].[Na+].[Na+]` [Sodium metabisulfite], in data set [1] (setting [4]), the “Redox potential (mV)” value was “+17 mV”. For the same compound, the “Increase in FI %” value in data set [2] (setting [5]) worked out at 0%.
With `O=S([O-])([O-])=S.[Na+].[Na+]` [Sodium thiosulfate], the “Redox potential (mV)” value in data set [1] is listed as “+40 mV”. Further, in data set [2], the “Increase in FI %” value is given as 67%.

(Values after patent US20040096845A1, “Peritoneal dialysates” (priority 2000, published 2004).)
